Our source for the GI50 values is patent publication US12558428B2, “Heterobifunctional compounds and their use in treating disease” (Halda Therapeutics OpCo, Inc., priority 2024, dated 2026).

Holding throughout (assay type): cell-based
The test system of experiment [1] is MCF7 cells (ATCC #HTB-22). Kind of experiment: Cellular growth inhibition assay, MCF7 cells purchased from ATCC. The settings on record: Homo sapiens, MCF7, 144 h, Table 8-A; MCF7 cells purchased from ATCC; six days; CellTiter-Glo; read-out: GI50. Put shortly:
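GI50 values come from a four-parameter fit of CellTiter-Glo 2.0 luminescence after six days of compound exposure at 37° C. Seeding density depended on the source: 225 cells/well for ECACC MCF7, 1,500 for ATCC. Medium was RPMI 1640 with 10% FBS and 0.2 U/ml insulin.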
(In general: ATP-based viability assays read luminescence as a measure of living cells.)

The test system of experiment [2] is T-Rex 293 cells lacking increased expression of estrogen receptor alpha protein. Put plainly: Cellular growth inhibition assay, T-Rex 293 cells, (−) doxycycline. The conditions noted are these: T-REx-293, 72 h, Table 7-A; T-Rex 293 cells without doxycycline (lacking increased ERα expression); 72 hours; CellTiter-Glo; read-out: (−) Dox GI50. Put shortly:
(§1)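 Cells of an inducible ERα-expressing T-Rex 293 clone are seeded in charcoal-dextran FBS medium with or without 3 ng/mL doxycycline, then treated after 24 h with compound dilutions (0.5% DMSO) for 72 h. Growth inhibition is measured by CellTiter-Glo luminescence and expressed as GI50.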

The subject of experiment [3] is T-Rex 293 cells having increased expression of estrogen receptor alpha protein. Kind of experiment: Cellular growth inhibition assay, T-Rex 293 cells, (+) doxycycline. The conditions noted are these: T-REx-293, 72 h, Table 7-A; T-Rex 293 cells with doxycycline (increased ERα expression); 72 hours; CellTiter-Glo; read-out: (+) Dox GI50. Summed up:
as §1

The structures appear in SMILES notation.

In the case of `Cc1sc2c(c1C)C(c1ccc(N3CCC(O)(CN4CCN(c5ccc([C@H]6c7ccc(C(=O)O)cc7CC[C@H]6c6ccccc6)cc5)CC4)CC3)cc1)=N[C@@H](Cc1ncco1)c1nnc(C)n1-2` [III-199], the GI50 in experiment [1], in experiment [2] and in experiment [3] was > 2500 nM each time.
As to `Cc1sc2c(c1C)C(c1ccc(N3CCC(O)(CN4CCN(c5ccc([C@@H]6c7ccc(C(=O)O)cc7CC[C@@H]6c6ccccc6)cc5)CC4)CC3)cc1)=N[C@@H](Cc1ncco1)c1nnc(C)n1-2` [III-200], the GI50 (as a rule, the concentration at which growth is held to half of that of the control) in experiment [1] was < 50 nM; in experiment [2] it was 50 to 500 nM; in experiment [3], < 50 nM.
On to `Cc1sc2c(c1C)C(c1ccc(N3CCC(O)(CN4CCN(c5ccc([C@@H]6c7ccc(C(=O)O)cc7CC[C@@H]6c6ccccc6)cc5)CC4)CC3)cc1)=N[C@H](Cc1ncco1)c1nnc(C)n1-2` [III-201], for which the GI50 in experiment [1], in experiment [2] and in experiment [3] was 50 to 500 nM throughout.
With `Cc1sc2c(c1C)C(c1ccc(N3CCC4(CCN(CC5CCN(c6ccc([C@@H]7c8ccc(O)cc8CC[C@@H]7c7ccccc7)cc6)CC5)CC4)C3)cc1)=N[C@@H](Cc1ncco1)c1nnc(C)n1-2` [III-202], the GI50 was < 50 nM in experiment [1], 50 to 500 nM in experiment [2] and < 50 nM in experiment [3].
Take `Cc1sc2c(c1C)C(c1ccc(N3CC(CC4(F)CCN(CC5CN(c6ccc([C@@H]7c8ccc(O)cc8CC[C@@H]7c7ccccc7)cc6)C5)CC4)C3)cc1)=N[C@@H](C)c1nnc(C)n1-2` [III-203]: the values for the GI50 in experiment [1], in experiment [2] and in experiment [3] were < 50 nM, 500 to 2500 nM and < 50 nM, respectively.
For the molecule `Cc1sc2c(c1C)C(c1ccc(N3CCC(O)(CN4CCN(c5ccc([C@@H]6c7ccc(C(=O)O)cc7CC[C@@H]6c6ccc(F)cc6F)cc5)CC4)CC3)cc1)=N[C@@H](C)c1nnc(C)n1-2` [III-204], the GI50 in experiment [1] is 50 to 500 nM; in experiment [2], 500 to 2500 nM; in experiment [3], < 50 nM.
On the same counts, the results for `Cc1sc2c(c1C)C(c1ccc(N3CCC(O)(CN4CCN(c5ccc([C@H]6c7ccc(C(=O)O)cc7CC[C@H]6c6ccc(F)cc6F)cc5)CC4)CC3)cc1)=N[C@@H](C)c1nnc(C)n1-2` [III-205] are 50 to 500 nM, 500 to 2500 nM and 50 to 500 nM.
Consider `Cc1sc2c(c1C)C(c1ccc(N3CC4(CCC(O)(CN5CCC(c6ccc([C@@H]7c8ccc(O)cc8CC[C@@H]7c7ccccc7)cc6)CC5)CC4)C3)cc1)=N[C@@H](C)c1nnc(C)n1-2` [III-206], for which the values for the GI50 in experiment [1], in experiment [2] and in experiment [3] were < 50 nM, 500 to 2500 nM and < 50 nM, respectively.
With `Cc1sc2c(c1C)C(c1ccc(N3CCC(O)(CN4CCN(c5ccc([C@H]6c7ccc(O)cc7CC[C@H]6c6ccc(F)cc6)cc5)CC4)CC3)cc1)=N[C@H](Cc1ncco1)c1nnc(C)n1-2` [III-207], the 50% growth inhibitory concentration (GI50) in experiment [1] is 500 to 2500 nM; in experiment [2], > 2500 nM; in experiment [3], > 2500 nM.
As to `Cc1sc2c(c1C)C(c1ccc(N3CCC(O)(CN4CCN(c5ccc([C@@H]6c7ccc(O)cc7CC[C@@H]6c6ccc(F)cc6)cc5)CC4)CC3)cc1)=N[C@H](Cc1ncco1)c1nnc(C)n1-2` [III-208], the GI50 in experiment [1] was 500 to 2500 nM; in experiment [2], > 2500 nM; in experiment [3], > 2500 nM.
`Cc1sc2c(c1C)C(c1ccc(N3CCC(O)(CN4CCN(c5ccc([C@H]6c7ccc(O)cc7CC[C@H]6c6ccc(F)cc6)cc5)CC4)CC3)cc1)=N[C@@H](Cc1ncco1)c1nnc(C)n1-2` [III-209]: the GI50 is 50 to 500 nM in experiment [1], 50 to 500 nM in experiment [2] and < 50 nM in experiment [3].
As to `Cc1sc2c(c1C)C(c1ccc(N3CCC(O)(CN4CCN(c5ccc([C@@H]6c7ccc(O)cc7CC[C@@H]6c6ccc(F)cc6)cc5)CC4)CC3)cc1)=N[C@@H](Cc1ncco1)c1nnc(C)n1-2` [III-210], the figures for the GI50 in experiment [1], in experiment [2] and in experiment [3] were < 50 nM, 50 to 500 nM and < 50 nM, respectively.
